From ChEMBL document CHEMBL1201862, “PubChem BioAssay data set” (2004)
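Tested at 5 concentrations; 48 h exposure; 96-well plates; endpoints linearly interpolated, else capped at highest concentration. The concentration for 50% growth inhibition is given as GI50.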 The source made the active and inactive calls. Rule as the data show it: active = GI50 up to about 1.1 µM and inactive = higher.

Tests used:
Assay in all cases: NCI tumour cell line growth inhibition, 48 h
786-0 = system: 786-0
A498 = system: A498
ACHN = system: ACHN
CAKI-1 = system: CAKI-1
CCRF-CEM = system: CCRF-CEM
COLO 205 = system: COLO 205
DLD-1 = system: DLD-1
DMS-114 = system: DMS-114
DMS-273 = system: DMS-273
HCC 2998 = system: HCC 2998
HCT-116 = system: HCT-116
HL-60 = system: HL-60
HOP-62 = system: HOP-62
HOP-92 = system: HOP-92
IGROV-1 = system: IGROV-1
K562 = system: K562
LXFL 529 = system: LXFL 529
M14 = system: M14
M19-MEL = system: M19-MEL
MOLT-4 = system: MOLT-4
Malme-3M = system: Malme-3M
NCI-H226 = system: NCI-H226
NCI-H23 = system: NCI-H23
NCI-H522 = system: NCI-H522
OVCAR-4 = system: OVCAR-4
RPMI-8226 = system: RPMI-8226
SF-268 = system: SF-268
SF-539 = system: SF-539
SK-MEL-28 = system: SK-MEL-28
SK-MEL-2 = system: SK-MEL-2
SK-OV-3 = system: SK-OV-3
SN12C = system: SN12C
SNB-75 = system: SNB-75
SNB-78 = system: SNB-78
SR = system: SR
UACC-62 = system: UACC-62
UO-31 = system: UO-31
XF498 = system: XF498
A549 = system: A549
EKVX = system: EKVX
HT-29 = system: HT-29
KM-20L2 = system: KM-20L2
KM12 = system: KM12
NCI-H460 = system: NCI-H460
OVCAR-3 = system: OVCAR-3
OVCAR-5 = system: OVCAR-5
OVCAR-8 = system: OVCAR-8
SF-295 = system: SF-295
SK-MEL-5 = system: SK-MEL-5
SNB-19 = system: SNB-19
SW-620 = system: SW-620
TK-10 = system: TK-10
U-251 = system: U-251
UACC-257 = system: UACC-257
HCT-15 = system: HCT-15
HOP-18 = system: HOP-18
LOX IMVI = system: LOX IMVI
RXF 393 = system: RXF 393

Q: Which results are given for `COc1ccc(/C=N/Nc2nc(C)c3c(n2)Nc2ccccc2NC3=O)cc1`?
A: GI50 (786-0): > 100 µM (inactive); GI50 (A498): > 100 µM (inactive); GI50 (ACHN): > 100 µM (inactive); GI50 (CAKI-1): > 100 µM (inactive); GI50 (CCRF-CEM): > 100 µM (inactive); GI50 (COLO 205): > 100 µM (inactive); GI50 (DLD-1): > 100 µM (inactive); GI50 (DMS-114): > 100 µM (inactive); GI50 (DMS-273): > 100 µM (inactive); GI50 (HCC 2998): > 100 µM (inactive); GI50 (HCT-116): > 100 µM (inactive); GI50 (HL-60): > 100 µM (inactive); GI50 (HOP-62): > 100 µM (inactive); GI50 (HOP-92): > 100 µM (inactive); GI50 (IGROV-1): > 100 µM (inactive); GI50 (K562): > 100 µM (inactive); GI50 (LXFL 529): 76.7 µM (inactive); GI50 (M14): > 100 µM (inactive); GI50 (M19-MEL): > 100 µM (inactive); GI50 (MOLT-4): > 100 µM (inactive); GI50 (Malme-3M): > 100 µM (inactive); GI50 (NCI-H226): > 100 µM (inactive); GI50 (NCI-H23): > 100 µM (inactive); GI50 (NCI-H522): > 100 µM (inactive); GI50 (OVCAR-4): > 100 µM (inactive); GI50 (RPMI-8226): > 100 µM (inactive); GI50 (SF-268): > 100 µM (inactive); GI50 (SF-539): > 100 µM (inactive); GI50 (SK-MEL-28): > 100 µM (inactive); GI50 (SK-MEL-2): > 100 µM (inactive); GI50 (SK-OV-3): > 100 µM (inactive); GI50 (SN12C): > 100 µM (inactive); GI50 (SNB-75): 42.6 µM (inactive); GI50 (SNB-78): > 100 µM (inactive); GI50 (SR): > 100 µM (inactive); GI50 (UACC-62): > 100 µM (inactive); GI50 (UO-31): > 100 µM (inactive); GI50 (XF498): > 100 µM (inactive)

Q: `O=C1OC(Cc2ccccc2)(N2CCCC2=O)C1c1ccccc1` (stereo not drawn) was tested. Which GI50 (786-0) did it give?
A: > 100 µM (inactive)

Q: And the GI50 (A498)?
A: 4.95 µM (inactive)

Q: And the GI50 (A549)?
A: 95.7 µM (inactive)

Q: And the GI50 (ACHN)?
A: 75.2 µM (inactive)

Q: What about the GI50 (CAKI-1) of the same compound?
A: > 100 µM (inactive)

Q: What about the GI50 (CCRF-CEM) of the same compound?
A: 43.9 µM (inactive)

Q: And the GI50 (COLO 205)?
A: > 100 µM (inactive)

Q: And the GI50 (DLD-1)?
A: 55.3 µM (inactive)

Q: And the GI50 (DMS-114)?
A: 23.7 µM (inactive)

Q: And the GI50 (EKVX)?
A: 48.6 µM (inactive)

Q: And the GI50 (HCT-116)?
A: 53.2 µM (inactive)

Q: What about the GI50 (HL-60) of the same compound?
A: 43 µM (inactive)

Q: What about the GI50 (HOP-62) of the same compound?
A: > 100 µM (inactive)

Q: What about the GI50 (HOP-92) of the same compound?
A: 62.8 µM (inactive)

Q: And the GI50 (HT-29)?
A: > 100 µM (inactive)

Q: And the GI50 (K562)?
A: 63.8 µM (inactive)

Q: What about the GI50 (KM-20L2) of the same compound?
A: > 100 µM (inactive)

Q: What about the GI50 (KM12) of the same compound?
A: 74.8 µM (inactive)

Q: And the GI50 (LXFL 529)?
A: 78.3 µM (inactive)

Q: What about the GI50 (M14) of the same compound?
A: > 100 µM (inactive)

Q: And the GI50 (M19-MEL)?
A: > 100 µM (inactive)

Q: And the GI50 (MOLT-4)?
A: 43.6 µM (inactive)

Q: What about the GI50 (Malme-3M) of the same compound?
A: > 100 µM (inactive)

Q: What about the GI50 (NCI-H226) of the same compound?
A: > 100 µM (inactive)

Q: What about the GI50 (NCI-H23) of the same compound?
A: 70.5 µM (inactive)

Q: What about the GI50 (NCI-H460) of the same compound?
A: > 100 µM (inactive)

Q: What about the GI50 (NCI-H522) of the same compound?
A: 48.2 µM (inactive)

Q: And the GI50 (OVCAR-3)?
A: > 100 µM (inactive)

Q: What about the GI50 (OVCAR-4) of the same compound?
A: > 100 µM (inactive)

Q: What about the GI50 (OVCAR-5) of the same compound?
A: > 100 µM (inactive)

Q: And the GI50 (OVCAR-8)?
A: > 100 µM (inactive)

Q: And the GI50 (RPMI-8226)?
A: 59.4 µM (inactive)

Q: And the GI50 (SF-268)?
A: > 100 µM (inactive)

Q: And the GI50 (SF-295)?
A: > 100 µM (inactive)

Q: What about the GI50 (SK-MEL-28) of the same compound?
A: > 100 µM (inactive)

Q: And the GI50 (SK-MEL-2)?
A: > 100 µM (inactive)

Q: What about the GI50 (SK-MEL-5) of the same compound?
A: 51.5 µM (inactive)

Q: And the GI50 (SK-OV-3)?
A: 73.1 µM (inactive)

Q: And the GI50 (SN12C)?
A: 67.5 µM (inactive)

Q: And the GI50 (SNB-19)?
A: 47.2 µM (inactive)

Q: And the GI50 (SNB-75)?
A: 30.8 µM (inactive)

Q: And the GI50 (SNB-78)?
A: > 100 µM (inactive)

Q: And the GI50 (SR)?
A: 56.4 µM (inactive)

Q: And the GI50 (SW-620)?
A: 65.5 µM (inactive)

Q: And the GI50 (TK-10)?
A: > 100 µM (inactive)

Q: What about the GI50 (U-251) of the same compound?
A: 44.7 µM (inactive)

Q: What about the GI50 (UACC-257) of the same compound?
A: > 100 µM (inactive)

Q: And the GI50 (UACC-62)?
A: 60 µM (inactive)

Q: And the GI50 (UO-31)?
A: > 100 µM (inactive)

Q: What about the GI50 (XF498) of the same compound?
A: 20.3 µM (inactive)

Q: What does the source list for `COC(=O)C(=O)C(CC(=O)Nc1cc(Cl)ccc1Cl)C(=O)OC` (stereo not drawn)?
A: GI50 (786-0): > 100 µM (inactive); GI50 (A498): > 100 µM (inactive); GI50 (A549): > 100 µM (inactive); GI50 (ACHN): > 100 µM (inactive); GI50 (CAKI-1): > 100 µM (inactive); GI50 (CCRF-CEM): > 100 µM (inactive); GI50 (COLO 205): > 100 µM (inactive); GI50 (DMS-114): > 100 µM (inactive); GI50 (DMS-273): > 100 µM (inactive); GI50 (EKVX): > 100 µM (inactive); GI50 (HCC 2998): > 100 µM (inactive); GI50 (HCT-116): > 100 µM (inactive); GI50 (HCT-15): > 100 µM; GI50 (HL-60): > 100 µM (inactive); GI50 (HOP-18): > 100 µM (inactive); GI50 (HOP-62): > 100 µM (inactive); GI50 (HOP-92): > 100 µM (inactive); GI50 (HT-29): > 100 µM (inactive); GI50 (IGROV-1): > 100 µM (inactive); GI50 (K562): > 100 µM (inactive); GI50 (KM-20L2): > 100 µM (inactive); GI50 (KM12): > 100 µM (inactive); GI50 (LOX IMVI): > 100 µM (inactive); GI50 (LXFL 529): > 100 µM (inactive); GI50 (M14): > 100 µM (inactive); GI50 (MOLT-4): > 100 µM (inactive); GI50 (Malme-3M): > 100 µM (inactive); GI50 (NCI-H226): > 100 µM (inactive); GI50 (NCI-H23): > 100 µM (inactive); GI50 (NCI-H460): > 100 µM (inactive); GI50 (NCI-H522): > 100 µM (inactive); GI50 (OVCAR-3): > 100 µM (inactive); GI50 (OVCAR-4): > 100 µM (inactive); GI50 (OVCAR-5): > 100 µM (inactive); GI50 (OVCAR-8): > 100 µM (inactive); GI50 (RPMI-8226): > 100 µM (inactive); GI50 (RXF 393): > 100 µM (inactive); GI50 (SF-268): > 100 µM (inactive); GI50 (SF-295): > 100 µM (inactive); GI50 (SF-539): > 100 µM (inactive); GI50 (SK-MEL-28): > 100 µM (inactive); GI50 (SK-MEL-2): > 100 µM (inactive); GI50 (SK-MEL-5): > 100 µM (inactive); GI50 (SK-OV-3): > 100 µM (inactive); GI50 (SN12C): > 100 µM (inactive); GI50 (SNB-19): > 100 µM (inactive); GI50 (SNB-75): > 100 µM (inactive); GI50 (SNB-78): > 100 µM (inactive); GI50 (SR): > 100 µM (inactive); GI50 (SW-620): > 100 µM (inactive); GI50 (TK-10): > 100 µM (inactive); GI50 (U-251): > 100 µM (inactive); GI50 (UACC-257): > 100 µM (inactive); GI50 (UACC-62): > 100 µM (inactive); GI50 (UO-31): > 100 µM (inactive)
